The record followed here is the NIST ThermoML archive (doi:10.1021/je301095j).

Molecules are shown by their SMILES. Numbers after ± are expanded uncertainties.

For this series the following is noted: 101.33 kPa, Liquid; for viscosity: Capillary tube (Ostwald / Ubbelohde) method; for mass density: Vibrating tube method.

Consider `CCCCCO` [pentan-1-ol], for which the viscosity (283.15 K) is listed as 5.463 ± 0.04 mPa·s; the viscosity (293.15 K) is on record as 4.037 ± 0.03 mPa·s; the viscosity (298.15 K) stood at 3.49 ± 0.026 mPa·s; the viscosity (303.15 K) stood at 3.032 ± 0.023 mPa·s; the viscosity (313.15 K) is on record as 2.319 ± 0.018 mPa·s. The mass density (283.15 K) came out at 821.95 ± 0.24 kg/m3; the mass density (293.15 K) is listed as 814.6 ± 0.24 kg/m3; the mass density (298.15 K) was found to be 810.93 ± 0.24 kg/m3; the mass density (303.15 K) is given as 807.25 ± 0.24 kg/m3; the mass density (313.15 K) was 799.9 ± 0.24 kg/m3.
For `CCCCCCCCO` [octan-1-ol], the viscosity is reported as 13.52 ± 0.07 mPa·s (283.15 K); 9.167 ± 0.05 mPa·s (293.15 K); 7.618 ± 0.042 mPa·s (298.15 K); 6.395 ± 0.036 mPa·s (303.15 K); 4.628 ± 0.028 mPa·s (313.15 K). Further, the mass density is, setting by setting: (283.15 K) 832.11 ± 0.13 kg/m3; (293.15 K) 825.13 ± 0.13 kg/m3; (298.15 K) 821.63 ± 0.14 kg/m3; (303.15 K) 818.14 ± 0.14 kg/m3; (313.15 K) 811.15 ± 0.14 kg/m3.
Consider `COCCOC` [1,2-dimethoxyethane], for which the viscosity is 0.493 ± 0.004 mPa·s (283.15 K); 0.438 ± 0.003 mPa·s (293.15 K); 0.414 ± 0.003 mPa·s (298.15 K); 0.392 ± 0.003 mPa·s (303.15 K); 0.353 ± 0.003 mPa·s (313.15 K). For the same compound, the mass density is listed as 877.72 ± 0.12 kg/m3 (283.15 K); 866.71 ± 0.12 kg/m3 (293.15 K); 861.2 ± 0.12 kg/m3 (298.15 K); 855.7 ± 0.13 kg/m3 (303.15 K); 844.69 ± 0.13 kg/m3 (313.15 K).
Turning to `CCO` [ethanol], the viscosity runs as follows: (283.15 K) 1.459 ± 0.009 mPa·s; (293.15 K) 1.209 ± 0.007 mPa·s; (298.15 K) 1.098 ± 0.007 mPa·s; (303.15 K) 0.998 ± 0.006 mPa·s; (313.15 K) 0.831 ± 0.005 mPa·s. In addition, the mass density runs as follows: (283.15 K) 797.97 ± 0.12 kg/m3; (293.15 K) 789.43 ± 0.12 kg/m3; (298.15 K) 785.16 ± 0.12 kg/m3; (303.15 K) 780.88 ± 0.12 kg/m3; (313.15 K) 772.34 ± 0.13 kg/m3.
